These results are taken from patent US9862684B2, “Modulation of K2P channels” (The Regents of the University of California, priority 2013, dated 2018).

The structures appear in SMILES notation.

This series can be described thus: Solubility (remarks). In kind it is physicochemical.

Take `CC1(C)c2cc(Cl)ccc2N(CCc2nnn[nH]2)c2ccc(Cl)cc21` [ML67-33, 2,7-dichloro-9,9-dimethyl-10-[2-(1H-tetrazol-5-yl)ethyl]acridine]: the “solubility (in words)” value is on record as “favorable solubility properties”.
